The values that follow are results of earlier work, collected in US8883204B2, “Tamper resistant co-extruded dosage form containing an active agent and an adverse agent and process of making same” (Purdue Pharma L.P., priority 2003, dated 2014).

The structures appear in SMILES notation.

The conditions of this data set: administered orally.

Regarding `O=C1CC[C@@]2(O)[C@H]3Cc4ccc(O)c5c4[C@@]2(CCN3CC2CC2)[C@H]1O5` [naltrexone], the duration of action is about 24 h.

`C[C@H]1[C@H]2Cc3ccc(O)cc3[C@]1(C)CCN2CC1CC1` [cyclazocine]: the duration of action is about 24 h.
